This is an account of results in patent US20250127787A1, “METHODS FOR TREATING PERIPHERAL NEUROPATHY” (University of Pittsburgh - Of the Commonwealth System of …, priority 2021, published 2025).

Entries after “also recorded” stand apart in the source; their conditions may differ.

One test deals with protein carbonylation. The test can be described thus: Protein carbonylation in CYP-CIPN rat hindpaw epidermis. The format is in vivo. The following applies: 8-AG 5 mg/kg/day in drinking water. Here is the method: (§1) Animals. This study employed female Harlan Sprague Dawley (HSD) rats (3-4 mo; Envigo, Indianapolis, IN) and were divided into the following groups: 1) Control, 2) Cyclophosphamide (CYP, 75 mg/kg i.p. in saline vehicle; administered on days 0, 3 and 6); 3) 8-aminoguanine (8-AG; 5 mg/kg/day in drinking water; beginning 2 weeks prior to CYP and continuing until sacrifice (day 8)). The dose of 8-AG is based on our preliminary and published experiments. […] The investigation conforms to the Guide for the Care and Use of Laboratory Animals published by the US National Institutes of Health (NIH Publication No. 85-23, revised 1996). […]
(§2) Western immunoblotting: Following the testing paradigms, rats were deeply anesthetized and tissues (e.g., epidermis, peripheral sciatic nerves, spinal cord segments (L3-L5) and dorsal root ganglia (L3-L5) were removed, and a portion of each preparation was homogenized using Lysing Matrix D in a FASTPREP® 24 instrument (MP Biomedicals, Solon, OH) in HBSS [5 mM KCl, 0.3 mM KH2PO4, 138 mM NaCl, 4 mM NaHO3, 0.3 mM Na2HCO3, 0.3 mM Na2HPO4, 5.6 mM glucose and 10 mM Hepes, pH 7.4 containing complete protease inhibitor cocktail (1 tablet/10 ml, Roche, Indianapolis, IN)] and phosphatase inhibitor cocktail (Sigma, 1:100). […] The protein concentrations of the supernatants were determined using the Pierce BCA protein assay (Thermo Scientific, Rockford, IL). […]

For a further test, the system named is PAC-CIPN rats. Nature of the test: Von Frey sensory testing in PAC-CIPN rats. The test is classed as in vivo, rat. The following applies: hindpaw footpad, paclitaxel 2 mg/kg i.p., 8-AG 5 mg/kg/day in drinking water. Here is the method: Animals: This study employed female Harlan Sprague Dawley (HSD) rats (3-4 mo; Envigo, Indianapolis, IN) and were divided into the following groups: 1) Control, 2) Cyclophosphamide (CYP, 75 mg/kg i.p. in saline vehicle; administered on days 0, 3 and 6 until sacrifice on day 8); 4) Paclitaxel (2 mg/kg i.p., 2 mg/kg i.p. in saline from a stock solution of 50/50 CremophorEL/ethanol); administered on days 0, 2, 4 and 6 until sacrifice on day 8; 4) 8-aminoguanine (8-AG; 5 mg/kg/day in drinking water; beginning 2 weeks prior to either CYP or PAC and continuing until sacrifice (day 8)). The dose of 8-AG was based on the experiments described above. […] All tissues (spinal cord and hindpaw epidermis) were removed from isoflurane anesthetized rats and the tissue was used for various experimental approaches as described below. At the end of tissue removal, animals were sacrificed by thoracotomy.
Von Frey sensory testing, Control, PAC and 8-AG-treated PAC rats were placed in an elevated chamber on a wire mesh floor and after acclimatization, calibrated von Frey microfilaments were applied to determine paw withdrawal threshold (PWT, in grams). Briefly, microfilaments (Stoelting Corp, USA) were applied with different forces perpendicularly to the plantar surface of both ipsilateral and contralateral hindpaw by increasing and decreasing stimulus intensity. […]

The subject of a further test is PGP 9.5. Nature of the test: PGP 9.5 expression in CYP-CIPN rat hindpaw epidermis, Western immunoblotting. The format is in vivo. The conditions noted are these: 8-AG 5 mg/kg/day in drinking water. The method, then:
as §1, §2
(In general: Immunoblotting shows a protein as a band on a membrane.)

For the compound `Nc1nc2[nH]c(N)nc2c(=O)[nH]1` [8-AG, 8-Aminoguanine], in the test on protein carbonylation, the “effect on CYP-induced protein carbonylation” value is on record as “completely prevents; also recorded: restored values to that of a control state”. The “effect on PAC-induced increase in sensitivity to mechanical stimuli (paw withdrawal threshold)” value with PAC-CIPN rats was “restored to control values; also recorded: normalized”. Moreover, in the test with PGP 9.5, the “effect on CYP-induced decrease in PGP 9.5 expression” value is on record as “restored to control values; also recorded: normalized”.
